# Experimental data published in article PMC11345841, “Exploring 2-Sulfonylpyrimidine Warheads as Acrylamide Surrogates for Targeted Covalent Inhibition: A BTK Story” (Journal of Medicinal Chemistry, 2024).
# Like-named read-outs stand apart in the source and are kept apart here.
# Tests used:
# Assay in all cases: KINOMEscan ScanTK
# Format in all cases: binding
# [1] = target: T1, ABL2 (Homo sapiens, UniProt P42684)
# T1 construct: purchased Eurofins DiscoverX KINOMEscan (scanTK)
# [2] = target: T2, ERBB3 (Homo sapiens, UniProt P21860); conditions: ERBB3
# T2 construct: purchased Eurofins DiscoverX KINOMEscan (scanTK)
# [3] = target: T3, FGFR1 (Homo sapiens, UniProt P11362)
# T3 construct: purchased Eurofins DiscoverX KINOMEscan (scanTK)
# [4] = target: T4, EGFR(G719C) (Homo sapiens, UniProt P00533, G719C)
# T4 construct: purchased Eurofins DiscoverX KINOMEscan (scanTK)
# T4 sequence (P00533 25-1210 G719C): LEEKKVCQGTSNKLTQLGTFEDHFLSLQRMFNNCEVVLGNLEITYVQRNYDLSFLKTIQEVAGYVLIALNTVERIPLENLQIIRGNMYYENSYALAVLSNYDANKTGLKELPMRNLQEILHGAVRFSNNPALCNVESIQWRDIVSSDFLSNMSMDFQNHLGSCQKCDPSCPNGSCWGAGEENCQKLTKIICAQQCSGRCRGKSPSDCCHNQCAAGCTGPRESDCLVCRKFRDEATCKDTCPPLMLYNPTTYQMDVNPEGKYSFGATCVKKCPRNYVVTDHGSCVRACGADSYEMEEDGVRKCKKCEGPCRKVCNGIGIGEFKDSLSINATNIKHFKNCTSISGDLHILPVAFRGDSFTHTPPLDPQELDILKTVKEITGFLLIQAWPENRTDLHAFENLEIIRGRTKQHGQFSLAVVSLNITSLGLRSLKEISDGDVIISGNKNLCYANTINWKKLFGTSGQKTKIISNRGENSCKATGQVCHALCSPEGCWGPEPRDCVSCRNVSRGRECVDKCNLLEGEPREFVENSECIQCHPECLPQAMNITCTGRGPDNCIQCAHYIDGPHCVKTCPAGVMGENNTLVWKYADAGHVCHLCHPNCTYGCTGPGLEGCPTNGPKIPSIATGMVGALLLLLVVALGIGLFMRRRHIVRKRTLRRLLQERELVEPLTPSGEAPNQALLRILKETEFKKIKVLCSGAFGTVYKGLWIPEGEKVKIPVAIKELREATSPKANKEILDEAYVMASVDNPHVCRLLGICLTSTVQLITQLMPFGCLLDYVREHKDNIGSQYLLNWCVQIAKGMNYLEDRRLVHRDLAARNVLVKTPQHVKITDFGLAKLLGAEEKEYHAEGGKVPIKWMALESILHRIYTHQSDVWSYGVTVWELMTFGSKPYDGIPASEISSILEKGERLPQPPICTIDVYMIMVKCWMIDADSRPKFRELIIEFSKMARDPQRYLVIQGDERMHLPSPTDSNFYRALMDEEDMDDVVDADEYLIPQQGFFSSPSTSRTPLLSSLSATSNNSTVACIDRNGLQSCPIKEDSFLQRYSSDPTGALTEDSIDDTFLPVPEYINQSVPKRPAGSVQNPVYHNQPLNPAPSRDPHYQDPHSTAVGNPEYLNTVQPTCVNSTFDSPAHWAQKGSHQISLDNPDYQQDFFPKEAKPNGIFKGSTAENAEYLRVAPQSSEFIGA
# [5] = target: T5, FGFR4 (Homo sapiens, UniProt P22455)
# T5 construct: purchased Eurofins DiscoverX KINOMEscan (scanTK)
# [6] = target: T6, ALK(L1196M) (Homo sapiens, UniProt Q9UM73, L1196M)
# T6 construct: purchased Eurofins DiscoverX KINOMEscan (scanTK)
# T6 sequence (Q9UM73 19-1620 L1196M): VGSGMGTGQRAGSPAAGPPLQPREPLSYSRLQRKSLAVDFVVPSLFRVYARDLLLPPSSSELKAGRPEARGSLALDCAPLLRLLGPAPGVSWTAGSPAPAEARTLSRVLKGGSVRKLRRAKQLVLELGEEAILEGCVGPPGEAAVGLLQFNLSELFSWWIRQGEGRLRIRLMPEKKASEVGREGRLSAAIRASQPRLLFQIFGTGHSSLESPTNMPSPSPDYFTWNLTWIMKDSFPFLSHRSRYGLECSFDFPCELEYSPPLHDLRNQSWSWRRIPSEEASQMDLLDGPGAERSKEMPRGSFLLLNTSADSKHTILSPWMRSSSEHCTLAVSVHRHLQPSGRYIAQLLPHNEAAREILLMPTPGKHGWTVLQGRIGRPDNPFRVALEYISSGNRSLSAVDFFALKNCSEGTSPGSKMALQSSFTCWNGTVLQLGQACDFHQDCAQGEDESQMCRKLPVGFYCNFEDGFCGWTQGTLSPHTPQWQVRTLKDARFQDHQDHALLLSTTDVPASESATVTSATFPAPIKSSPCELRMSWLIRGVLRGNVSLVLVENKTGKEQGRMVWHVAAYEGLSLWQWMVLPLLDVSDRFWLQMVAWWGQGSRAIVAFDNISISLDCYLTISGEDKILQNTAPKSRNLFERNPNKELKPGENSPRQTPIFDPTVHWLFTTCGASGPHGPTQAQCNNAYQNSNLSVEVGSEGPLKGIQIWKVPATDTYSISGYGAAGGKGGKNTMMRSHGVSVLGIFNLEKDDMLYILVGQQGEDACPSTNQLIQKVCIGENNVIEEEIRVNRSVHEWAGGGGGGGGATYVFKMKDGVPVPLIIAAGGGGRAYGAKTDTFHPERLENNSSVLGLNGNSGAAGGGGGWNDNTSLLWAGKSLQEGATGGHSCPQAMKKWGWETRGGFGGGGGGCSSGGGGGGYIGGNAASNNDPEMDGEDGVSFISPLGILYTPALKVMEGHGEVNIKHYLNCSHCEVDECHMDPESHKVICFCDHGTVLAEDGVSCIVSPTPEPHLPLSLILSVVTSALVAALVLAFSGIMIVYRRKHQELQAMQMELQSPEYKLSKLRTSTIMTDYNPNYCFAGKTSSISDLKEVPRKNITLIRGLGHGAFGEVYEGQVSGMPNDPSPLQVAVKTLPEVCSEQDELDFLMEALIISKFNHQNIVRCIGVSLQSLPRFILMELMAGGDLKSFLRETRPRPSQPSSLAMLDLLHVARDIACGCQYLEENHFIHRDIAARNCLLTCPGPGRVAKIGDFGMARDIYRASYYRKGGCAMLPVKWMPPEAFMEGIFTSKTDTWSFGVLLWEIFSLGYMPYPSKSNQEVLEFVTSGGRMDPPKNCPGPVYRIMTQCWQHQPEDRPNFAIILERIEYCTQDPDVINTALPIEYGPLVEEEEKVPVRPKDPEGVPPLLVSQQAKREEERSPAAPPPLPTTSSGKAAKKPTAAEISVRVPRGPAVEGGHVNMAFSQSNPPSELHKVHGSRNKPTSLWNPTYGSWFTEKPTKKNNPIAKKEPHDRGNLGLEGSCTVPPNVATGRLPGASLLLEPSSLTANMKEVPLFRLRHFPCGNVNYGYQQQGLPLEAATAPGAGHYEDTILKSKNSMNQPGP
# [7] = target: T7, JAK1(JH1domain-catalytic) (Homo sapiens, UniProt P23458)
# T7 construct: JAK1(JH1domain-catalytic); purchased Eurofins DiscoverX KINOMEscan (scanTK)
# T7 sequence (P23458 875-1154 limits assumed): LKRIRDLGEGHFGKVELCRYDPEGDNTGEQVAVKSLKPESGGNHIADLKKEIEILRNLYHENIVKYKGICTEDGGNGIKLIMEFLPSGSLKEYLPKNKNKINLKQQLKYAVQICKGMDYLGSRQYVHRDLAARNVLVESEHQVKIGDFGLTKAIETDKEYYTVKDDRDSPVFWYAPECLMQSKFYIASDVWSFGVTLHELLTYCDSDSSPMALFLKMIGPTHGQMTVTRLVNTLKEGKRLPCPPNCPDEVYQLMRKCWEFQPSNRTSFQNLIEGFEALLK
# [8] = target: T8, FLT3(R834Q) (Homo sapiens, UniProt P36888, R834Q)
# T8 construct: purchased Eurofins DiscoverX KINOMEscan (scanTK)
# T8 sequence (P36888 27-993 R834Q): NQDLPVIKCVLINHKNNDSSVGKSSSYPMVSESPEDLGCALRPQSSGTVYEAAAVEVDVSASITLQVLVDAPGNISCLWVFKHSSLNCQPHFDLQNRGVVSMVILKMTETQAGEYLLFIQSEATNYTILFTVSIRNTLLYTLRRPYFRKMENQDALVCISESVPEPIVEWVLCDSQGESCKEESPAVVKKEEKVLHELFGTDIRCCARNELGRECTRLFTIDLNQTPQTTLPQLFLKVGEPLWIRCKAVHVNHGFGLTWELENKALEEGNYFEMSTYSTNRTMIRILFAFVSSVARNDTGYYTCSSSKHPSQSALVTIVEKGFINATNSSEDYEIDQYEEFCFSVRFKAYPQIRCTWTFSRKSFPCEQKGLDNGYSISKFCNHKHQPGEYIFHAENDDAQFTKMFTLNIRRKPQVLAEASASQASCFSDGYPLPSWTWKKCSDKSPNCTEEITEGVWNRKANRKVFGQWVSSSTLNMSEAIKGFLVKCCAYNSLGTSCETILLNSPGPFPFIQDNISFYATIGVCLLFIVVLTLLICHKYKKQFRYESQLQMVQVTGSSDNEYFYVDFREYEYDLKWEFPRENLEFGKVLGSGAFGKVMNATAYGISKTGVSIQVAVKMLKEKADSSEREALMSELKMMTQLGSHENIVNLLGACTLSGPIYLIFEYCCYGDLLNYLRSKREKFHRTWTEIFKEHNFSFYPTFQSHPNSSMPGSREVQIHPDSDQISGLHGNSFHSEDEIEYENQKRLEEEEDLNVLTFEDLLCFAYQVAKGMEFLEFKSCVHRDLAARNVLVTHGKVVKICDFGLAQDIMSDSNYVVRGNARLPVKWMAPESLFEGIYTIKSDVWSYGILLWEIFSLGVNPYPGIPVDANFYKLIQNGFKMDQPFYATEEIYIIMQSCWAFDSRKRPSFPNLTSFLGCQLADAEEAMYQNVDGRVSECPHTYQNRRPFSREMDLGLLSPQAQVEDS
# [9] = target: T9, INSRR (Homo sapiens, UniProt P14616)
# T9 construct: purchased Eurofins DiscoverX KINOMEscan (scanTK)
# [10] = target: T10, EPHA2 (Homo sapiens, UniProt P29317)
# T10 construct: purchased Eurofins DiscoverX KINOMEscan (scanTK)
# [11] = target: T11, JAK3(JH1domain-catalytic) (Homo sapiens, UniProt P52333); conditions: for difference in %Control from compound Ib at 1 µM / remaining binding at 1 µM: JAK3(JH1domain-catalytic); for inhibition at 1 µM: ScanTK
# T11 construct: JAK3(JH1domain-catalytic); purchased Eurofins DiscoverX KINOMEscan (scanTK)
# T11 sequence (P52333 822-1124 limits assumed): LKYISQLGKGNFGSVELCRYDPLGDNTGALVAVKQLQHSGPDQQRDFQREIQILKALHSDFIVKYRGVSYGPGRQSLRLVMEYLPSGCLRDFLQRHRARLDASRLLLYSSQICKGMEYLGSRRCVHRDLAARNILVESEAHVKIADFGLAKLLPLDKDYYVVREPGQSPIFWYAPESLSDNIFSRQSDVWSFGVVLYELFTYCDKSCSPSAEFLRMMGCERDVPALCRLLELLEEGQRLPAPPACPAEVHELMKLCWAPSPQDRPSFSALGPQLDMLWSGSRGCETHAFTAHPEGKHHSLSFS
# [12] = target: T12, EGFR(S752-I759del) (Homo sapiens, UniProt P00533, DEL752-759)
# T12 construct: purchased Eurofins DiscoverX KINOMEscan (scanTK)
# T12 sequence (P00533 with tags, fused parts or gaps DEL752-759 limits assumed): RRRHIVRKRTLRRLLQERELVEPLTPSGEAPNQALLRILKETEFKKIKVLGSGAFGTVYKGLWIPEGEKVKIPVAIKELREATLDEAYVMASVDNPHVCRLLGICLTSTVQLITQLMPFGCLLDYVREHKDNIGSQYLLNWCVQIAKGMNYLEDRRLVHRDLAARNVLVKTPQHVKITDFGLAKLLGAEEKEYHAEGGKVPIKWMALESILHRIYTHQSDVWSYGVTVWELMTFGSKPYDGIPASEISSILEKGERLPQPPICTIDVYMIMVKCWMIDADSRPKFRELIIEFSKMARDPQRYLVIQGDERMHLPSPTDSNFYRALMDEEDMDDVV
# [13] = target: T13, TRKB (Homo sapiens, UniProt Q16620); conditions: TRKB
# T13 construct: purchased Eurofins DiscoverX KINOMEscan (scanTK)
# [14] = target: T14, EGFR(L858R) (Homo sapiens, UniProt P00533, L858R)
# T14 construct: purchased Eurofins DiscoverX KINOMEscan (scanTK)
# T14 sequence (P00533 25-1210 L858R): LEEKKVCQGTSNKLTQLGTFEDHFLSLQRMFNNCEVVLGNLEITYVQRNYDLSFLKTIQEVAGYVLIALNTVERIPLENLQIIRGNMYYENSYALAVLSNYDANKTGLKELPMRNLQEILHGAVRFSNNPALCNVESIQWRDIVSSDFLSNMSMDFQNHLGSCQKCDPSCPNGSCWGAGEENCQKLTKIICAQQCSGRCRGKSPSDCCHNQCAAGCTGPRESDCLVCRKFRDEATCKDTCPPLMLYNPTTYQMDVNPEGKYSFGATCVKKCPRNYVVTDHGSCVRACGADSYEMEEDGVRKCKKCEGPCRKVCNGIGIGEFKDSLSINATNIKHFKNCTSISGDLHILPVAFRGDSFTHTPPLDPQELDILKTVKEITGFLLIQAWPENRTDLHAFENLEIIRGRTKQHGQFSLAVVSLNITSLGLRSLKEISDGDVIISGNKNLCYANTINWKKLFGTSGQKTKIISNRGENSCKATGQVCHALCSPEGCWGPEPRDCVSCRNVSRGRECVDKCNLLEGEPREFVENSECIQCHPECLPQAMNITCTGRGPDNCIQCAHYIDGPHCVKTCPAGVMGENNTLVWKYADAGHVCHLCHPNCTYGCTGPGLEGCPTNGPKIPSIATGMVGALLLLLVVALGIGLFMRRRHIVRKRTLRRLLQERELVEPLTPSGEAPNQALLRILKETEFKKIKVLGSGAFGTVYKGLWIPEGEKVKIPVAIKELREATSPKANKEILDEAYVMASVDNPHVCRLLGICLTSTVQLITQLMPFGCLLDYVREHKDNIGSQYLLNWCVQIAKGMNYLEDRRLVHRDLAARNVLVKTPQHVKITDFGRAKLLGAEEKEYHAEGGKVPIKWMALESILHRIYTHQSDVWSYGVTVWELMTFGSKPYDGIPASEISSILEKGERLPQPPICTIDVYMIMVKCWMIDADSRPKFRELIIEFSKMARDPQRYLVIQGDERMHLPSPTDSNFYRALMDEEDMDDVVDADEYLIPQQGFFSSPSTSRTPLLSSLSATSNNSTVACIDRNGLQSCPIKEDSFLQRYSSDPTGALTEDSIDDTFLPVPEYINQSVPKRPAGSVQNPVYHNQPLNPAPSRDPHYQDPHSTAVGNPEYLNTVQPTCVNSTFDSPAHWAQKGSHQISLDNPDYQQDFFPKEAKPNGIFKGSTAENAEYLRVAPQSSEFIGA
smiles,measurement,setting,value
"COC(=O)c1cnc(S(C)(=O)=O)nc1N1CCCC(n2nc(-c3ccc(Oc4ccccc4)cc3)c3c(N)ncnc32)C1 (centres unmarked) [Compound 8b, Methyl 4-(3-(4-Amino-3-(4-phenoxyphenyl)-1H-pyrazolo[3,4-d]pyrimidin-1-yl)piperidin-1-yl)-2-(methylsulfonyl)pyrimidine-5-carboxylate]",difference in %Control from reference compound Ib at 1 µM,[1]; @1000nM,38%
same,remaining binding at 1 µM,"[1]; @1000nM, read-out: %Control",79%
same,remaining binding at 1 µM,[1]; read-out: %Control @1000nM,79%
same,% of control difference from compound Ib at 1 µM,[2]; @1000nM,2.3%
same,remaining binding at 1 µM,"[2]; @1000nM, read-out: %Control",2.3%
same,remaining binding at 1 µM,[2]; read-out: %Control @1000nM,2.3%
same,difference in %Control from compound Ib at 1 µM,[3]; @1000nM,16%
same,remaining binding at 1 µM,"[3]; @1000nM, read-out: %Control",49%
same,remaining binding at 1 µM,[3]; read-out: %Control @1000nM,49%
same,difference in %Control vs compound Ib at 1 µM,[4]; @1000nM,1.7%
same,remaining binding at 1 µM,"[4]; @1000nM, read-out: %Control",2.8%
same,remaining binding at 1 µM,[4]; read-out: %Control @1000nM,2.8%
same,difference in %Control from compound Ib at 1 µM,[5]; @1000nM,-4%
same,remaining binding at 1 µM,"[5]; @1000nM, read-out: %Control",92%
same,remaining binding at 1 µM,[5]; read-out: %Control @1000nM,92%
same,difference in % of control vs compound Ib at 1 µM,[6]; @1000nM,-8%
same,remaining binding at 1 µM,"[6]; @1000nM, read-out: %Control",92%
same,remaining binding at 1 µM,[6]; read-out: %Control @1000nM,92%
same,difference in %Control versus compound Ib at 1 µM,[7]; @1000nM,3%
same,remaining binding at 1 µM,"[7]; @1000nM, read-out: %Control",97%
same,remaining binding at 1 µM,[7]; read-out: %Control @1000nM,97%
same,difference in %Control versus compound Ib at 1 µM,[8]; @1000nM,22%
same,remaining binding at 1 µM,"[8]; @1000nM, read-out: %Control",83%
same,remaining binding at 1 µM,[8]; read-out: %Control @1000nM,83%
same,difference in %Control versus compound Ib at 1 µM,[9]; @1000nM,0%
same,remaining binding at 1 µM,"[9]; @1000nM, read-out: %Control",96%
same,remaining binding at 1 µM,[9]; read-out: %Control @1000nM,96%
same,difference in %Control versus compound Ib at 1 µM,[10]; @1000nM,-1%
same,remaining binding at 1 µM,"[10]; @1000nM, read-out: %Control",99%
same,remaining binding at 1 µM,[10]; read-out: %Control @1000nM,99%
same,difference in %Control from compound Ib at 1 µM,[11]; @1000nM,94.5%
same,remaining binding at 1 µM,"[11]; @1000nM, read-out: %Control",100%
same,remaining binding at 1 µM,[11]; read-out: %Control @1000nM,100%
same,inhibition at 1 µM,[11],< 1%
same,difference in %Control versus compound Ib at 1 µM,[12]; @1000nM,80%
same,remaining binding at 1 µM,"[12]; @1000nM, read-out: %Control",82%
same,remaining binding at 1 µM,[12]; read-out: %Control @1000nM,82%
same,difference in %Control versus compound Ib at 1 µM,[13]; @1000nM,7%
same,remaining binding at 1 µM,"[13]; @1000nM, read-out: %Control",99%
same,remaining binding at 1 µM,[13]; read-out: %Control @1000nM,99%
same,%Control difference from compound Ib at 1 µM,[14]; @1000nM,72.1%
same,remaining binding at 1 µM,"[14]; @1000nM, read-out: %Control",74%
same,remaining binding at 1 µM,[14]; read-out: %Control @1000nM,74%
"CNC(=O)c1cnc(S(C)(=O)=O)nc1N1CCCC(n2nc(-c3ccc(Oc4ccccc4)cc3)c3c(N)ncnc32)C1 (centres unmarked) [Compound 8d, 4-(3-(4-Amino-3-(4-phenoxyphenyl)-1H-pyrazolo[3,4-d]pyrimidin-1-yl)piperidin-1-yl)-N-methyl-2-(methylsulfonyl)pyrimidine-5-carboxamide]",difference in %Control from reference compound Ib at 1 µM,[1]; @1000nM,48%
same,remaining binding at 1 µM,"[1]; @1000nM, read-out: %Control",89%
same,remaining binding at 1 µM,[1]; read-out: %Control @1000nM,89%
same,% of control difference from compound Ib at 1 µM,[2]; @1000nM,8.9%
same,remaining binding at 1 µM,"[2]; @1000nM, read-out: %Control",8.9%
same,remaining binding at 1 µM,[2]; read-out: %Control @1000nM,8.9%
same,difference in %Control from compound Ib at 1 µM,[3]; @1000nM,45%
same,remaining binding at 1 µM,"[3]; @1000nM, read-out: %Control",78%
same,remaining binding at 1 µM,[3]; read-out: %Control @1000nM,78%
same,difference in %Control vs compound Ib at 1 µM,[4]; @1000nM,-0.45%
same,remaining binding at 1 µM,"[4]; @1000nM, read-out: %Control",0.65%
same,remaining binding at 1 µM,[4]; read-out: %Control @1000nM,0.65%
same,difference in %Control from compound Ib at 1 µM,[5]; @1000nM,4%
same,remaining binding at 1 µM,"[5]; @1000nM, read-out: %Control",100%
same,remaining binding at 1 µM,[5]; read-out: %Control @1000nM,100%
same,difference in % of control vs compound Ib at 1 µM,[6]; @1000nM,-21%
same,remaining binding at 1 µM,"[6]; @1000nM, read-out: %Control",79%
same,remaining binding at 1 µM,[6]; read-out: %Control @1000nM,79%
same,difference in %Control versus compound Ib at 1 µM,[7]; @1000nM,6%
same,remaining binding at 1 µM,"[7]; @1000nM, read-out: %Control",100%
same,remaining binding at 1 µM,[7]; read-out: %Control @1000nM,100%
same,difference in %Control versus compound Ib at 1 µM,[8]; @1000nM,29%
same,remaining binding at 1 µM,"[8]; @1000nM, read-out: %Control",90%
same,remaining binding at 1 µM,[8]; read-out: %Control @1000nM,90%
same,difference in %Control versus compound Ib at 1 µM,[9]; @1000nM,-8%
same,remaining binding at 1 µM,"[9]; @1000nM, read-out: %Control",88%
same,remaining binding at 1 µM,[9]; read-out: %Control @1000nM,88%
same,difference in %Control versus compound Ib at 1 µM,[10]; @1000nM,-2%
same,remaining binding at 1 µM,"[10]; @1000nM, read-out: %Control",98%
same,remaining binding at 1 µM,[10]; read-out: %Control @1000nM,98%
same,difference in %Control from compound Ib at 1 µM,[11]; @1000nM,67.5%
same,remaining binding at 1 µM,"[11]; @1000nM, read-out: %Control",73%
same,remaining binding at 1 µM,[11]; read-out: %Control @1000nM,73%
same,inhibition at 1 µM,[11],27%
same,difference in %Control versus compound Ib at 1 µM,[12]; @1000nM,67%
same,remaining binding at 1 µM,"[12]; @1000nM, read-out: %Control",69%
same,remaining binding at 1 µM,[12]; read-out: %Control @1000nM,69%
same,difference in %Control versus compound Ib at 1 µM,[13]; @1000nM,-5%
same,remaining binding at 1 µM,"[13]; @1000nM, read-out: %Control",87%
same,remaining binding at 1 µM,[13]; read-out: %Control @1000nM,87%
same,%Control difference from compound Ib at 1 µM,[14]; @1000nM,39.1%
same,remaining binding at 1 µM,"[14]; @1000nM, read-out: %Control",41%
same,remaining binding at 1 µM,[14]; read-out: %Control @1000nM,41%
